In this assay the target is T1, Recombinant human BRD4 containing dual bromodomains (BRD4-BD12 (1-477)) (Homo sapiens, UniProt O60885).
T1 construct: Recombinant human BRD4 containing dual bromodomains (BRD4-BD12 (1-477)); made in house; host or cells: E. coli BL21-CodonPlus (DE3), modified pET vector
The assay can be described thus: BRD4 Alphascreen binding assay. A digest of the protocol: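 AlphaScreen proximity between Ni-chelate-bound BRD4-BD12 (1-477) and streptavidin-captured H4 K5/K8/K12/K16-acetyl peptide measured after 1 h room-temperature compound incubation and 30 min with 7.5 μg/ml beads. Buffer: 50 mM HEPES pH 7.5, 50 mM NaCl, 0.01% BSA, 0.01% Triton X-100; data plate-normalized and four-parameter fit for IC50.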

Each structure is given as a SMILES string.

These results are taken from patent US11446287B2, “Compounds and methods for EP300 or CBP modulation and indications therefor” (Opna Immuno-Oncology SA, priority 2019, dated 2022).

With `Cc1noc(C)c1-c1cnc2c(c1)c(-c1ccc(C(=O)O)cc1)cn2[C@@H](C)c1ccccn1` [P-0001, (S)-4-(5-(3,5-dimethylisoxazol-4-yl)-1-(1-(pyridin-2-yl)ethyl)-1H-pyrrolo[2,3-b]pyridin-3-yl)benzoic acid], the IC50 fell in the range of 8 to 1000 µM.

With `Cc1noc(C)c1-c1cnc2c(c1)c(-c1ccc(C(=O)O)cc1)cn2C(c1ccccn1)C1CCCC1` (stereo not drawn) [P-0002, 4-(1-(cyclopentyl(pyridin-2-yl)methyl)-5-(3,5-dimethylisoxazol-4-yl)-1H-pyrrolo[2,3-b]pyridin-3-yl)benzoic acid], the IC50 was 0.0001 to 1 µM.

As for `Cc1noc(C)c1-c1cnc2c(c1)c(-c1ccccc1)cn2C(c1ccccn1)C1CCCC1` (stereo not drawn) [P-0003, 4-(1-(cyclopentyl(pyridin-2-yl)methyl)-3-phenyl-1H-pyrrolo[2,3-b]pyridin-5-yl)-3,5-dimethylisoxazole], the IC50 was 8 to 1000 µM.

For the molecule `Cc1noc(C)c1-c1cnc2c(c1)c(-c1ccc(C(=O)O)cc1)cn2C(c1ccccn1)C1CCCCC1` (stereo not drawn) [P-0004, 4-(1-(cyclohexyl(pyridin-2-yl)methyl)-5-(3,5-dimethylisoxazol-4-yl)-1H-pyrrolo[2,3-b]pyridin-3-yl)benzoic acid], the IC50 was in the range of 8 to 1000 µM.

As to `COC(=O)c1ccc(-c2cn(S(=O)(=O)c3ccc(C)cc3)c3ncc(-c4c(C)noc4C)cc23)cc1` [P-0005, methyl 4-(5-(3,5-dimethylisoxazol-4-yl)-1-tosyl-1H-pyrrolo[2,3-b]pyridin-3-yl)benzoate], the IC50 was in the range of 8 to 1000 µM.

Consider `Cc1noc(C)c1-c1cnc2c(c1)c(-c1ccnc(C(=O)O)c1)cn2S(=O)(=O)c1ccccc1` [P-0055, 4-(5-(3,5-dimethylisoxazol-4-yl)-1-(phenylsulfonyl)-1H-pyrrolo[2,3-b]pyridin-3-yl)picolinic acid], for which the 50% inhibitory concentration (IC50) lay in the range of 0.0001 to 1 µM.

With `COc1cccc(Cn2cc(-c3cccc(C(=O)O)c3)c3cc(-c4c(C)noc4C)cnc32)c1` [P-0056, 3-(5-(3,5-dimethylisoxazol-4-yl)-1-(3-methoxybenzyl)-1H-pyrrolo[2,3-]pyridin-3-yl)benzoic acid], the IC50 lay in the range of 1 to 8 µM.

For the molecule `COc1cccc(Cn2cc(-c3ccnc(C(=O)O)c3)c3cc(-c4c(C)noc4C)cnc32)c1` [P-0057, 4-(5-(3,5-dimethylisoxazol-4-yl)-1-(3-methoxybenzyl)-1H-pyrrolo[2,3-b]pyridin-3-yl)picolinic acid], the IC50 lay in the range of 1 to 8 µM.

`Cc1noc(C)c1-c1cnc2c(c1)c(-c1cccc(C(=O)O)c1)cn2C(C1CC1)C1CC1` [P-0058, 3-(1-(dicyclopropylmethyl)-5-(3,5-dimethylisoxazol-4-yl)-1H-pyrrolo[2,3-b]pyridin-3-yl)benzoic acid]: the IC50 was 8 to 1000 µM.

As to `Cc1noc(C)c1-c1cnc2c(c1)c(-c1cccc(C(=O)O)c1)cn2Cc1cccc(OC(F)(F)F)c1` [P-0059, 3-(5-(3,5-dimethylisoxazol-4-yl)-1-(3-(trifluoromethoxy)benzyl)-1H-pyrrolo[2,3-b]pyridin-3-yl)benzoic acid], the half-inhibitory concentration (IC50) lay in the range of 8 to 1000 µM.

For `Cc1noc(C)c1-c1cnc2c(c1)c(-c1cccc(C(=O)O)c1)cn2Cc1cccc(F)c1` [P-0060, 3-(5-(3,5-dimethylisoxazol-4-yl)-1-(3-fluorobenzyl)-1H-pyrrolo[2,3-b]pyridin-3-yl)benzoic acid], the IC50 lay within 1 to 8 µM.

On to `Cc1noc(C)c1-c1cnc2c(c1)c(-c1cccc(C(=O)O)c1)cn2Cc1cccc(Cl)c1` [P-0061, 3-(1-(3-chlorobenzyl)-5-(3,5-dimethylisoxazol-4-yl)-1H-pyrrolo[2,3-b]pyridin-3-yl)benzoic acid], for which the IC50 lay in the range of 8 to 1000 µM.

Consider `Cc1cccc(Cn2cc(-c3cccc(C(=O)O)c3)c3cc(-c4c(C)noc4C)cnc32)c1` [P-0062, 3-(5-(3,5-dimethylisoxazol-4-yl)-1-(3-methylbenzyl)-1H-pyrrolo[2,3-b]pyridin-3-yl)benzoic acid], for which the IC50 is 8 to 1000 µM.

On to `Cc1noc(C)c1-c1cnc2c(c1)c(-c1cccc(C(=O)O)c1)cn2Cc1cccc(C(F)(F)F)c1` [P-0063, 3-(5-(3,5-dimethylisoxazol-4-yl)-1-(3-(trifluoromethyl)benzyl)-1H-pyrrolo[2,3-b]pyridin-3-yl)benzoic acid], for which the IC50 lay within 8 to 1000 µM.

For the molecule `Cc1noc(C)c1-c1cnc2c(CC3CCC3)cn(-c3ccc(C(=O)O)cc3OC(F)F)c2c1` [P-0064, 4-(3-(cyclobutylmethyl)-6-(3,5-dimethylisoxazol-4-yl)-1H-pyrrolo[3,2-b]pyridin-1-yl)-3-(difluoromethoxy)benzoic acid], the IC50 fell in the range of 1 to 8 µM.

As to `Cc1noc(C)c1-c1cnc2c(CC3CC3)cn(-c3ccnc(C(=O)O)c3)c2c1` [P-0065, 4-(3-(cyclopropylmethyl)-6-(3,5-dimethylisoxazol-4-yl)-1H-pyrrolo[3,2-b]pyridin-1-yl)picolinic acid], the IC50 fell in the range of 1 to 8 µM.

For the molecule `Cc1noc(C)c1-c1cnc2c(CC3CCC3)cn(-c3ccc(C(=O)O)cc3OC(F)(F)F)c2c1` [P-0066, 4-(3-(cyclobutylmethyl)-6-(3,5-dimethylisoxazol-4-yl)-1H-pyrrolo[3,2-b]pyridin-1-yl)-3-(trifluoromethoxy)benzoic acid], the IC50 fell in the range of 8 to 1000 µM.

Consider `COc1cc(C(=O)O)cc(OC)c1-n1cc(CC2CCC2)c2ncc(-c3c(C)noc3C)cc21` [P-0067, 4-(3-(cyclobutylmethyl)-6-(3,5-dimethylisoxazol-4-yl)-1H-pyrrolo[3,2-b]pyridin-1-yl)-3,5-dimethoxybenzoic acid], for which the IC50 lay in the range of 1 to 8 µM.

For the molecule `Cc1noc(C)c1-c1cnc2c(CC3CCC3)cn(-c3ccc(S(C)(=O)=O)c(F)c3)c2c1` [P-0068, 4-(3-(cyclobutylmethyl)-1-(3-fluoro-4-(methylsulfonyl)phenyl)-1H-pyrrolo[3,2-b]pyridin-6-yl)-3,5-dimethylisoxazole], the IC50 lay within 8 to 1000 µM.

As to `Cc1noc(C)c1-c1cnc2c(c1)c(C#CC(=O)O)cn2Cc1ccccc1` [P-0069, 3-(1-benzyl-5-(3,5-dimethylisoxazol-4-yl)-1H-pyrrolo[2,3-b]pyridin-3-yl)propiolic acid], the IC50 lay within 8 to 1000 µM.

As to `Cc1noc(C)c1-c1cnc2c(c1)c(-c1ccc(C(=O)O)cc1OC(F)(F)F)cn2[C@@H](C)c1ccccn1` [P-0070, (S)-4-(5-(3,5-dimethylisoxazol-4-yl)-1-(1-(pyridin-2-yl)ethyl)-1H-pyrrolo[2,3-b]pyridin-3-yl)-3-(trifluoromethoxy)benzoic acid], the IC50 fell in the range of 8 to 1000 µM.

On to `Cc1noc(C)c1-c1cnc2c(c1)c(-c1ccc(C(=O)O)cc1OC(F)F)cn2[C@@H](C)c1ccccn1` [P-0071, (S)-3-(difluoromethoxy)-4-(5-(3,5-dimethylisoxazol-4-yl)-1-(1-(pyridin-2-yl)ethyl)-1H-pyrrolo[2,3-b]pyridin-3-yl)benzoic acid], for which the IC50 lay within 1 to 8 µM.

On to `Cc1noc(C)c1-c1cnc2c(c1)c(-c1cccc(C(=O)O)c1)cn2C(C1CCC1)C1CCC1` [P-0072, 3-(1-(dicyclobutylmethyl)-5-(3,5-dimethylisoxazol-4-yl)-1H-pyrrolo[2,3-b]pyridin-3-yl)benzoic acid], for which the IC50 was 1 to 8 µM.

In the case of `Cc1noc(C)c1-c1cnc2c(c1)c(-c1cccc(C(=O)O)c1)cn2C(c1ccccn1)C1CCC1` (stereo not drawn) [P-0073, 3-(1-(cyclobutyl(pyridin-2-yl)methyl)-5-(3,5-dimethylisoxazol-4-yl)-1H-pyrrolo[2,3-b]pyridin-3-yl)benzoic acid], the IC50 fell in the range of 8 to 1000 µM.
